{
  "source": "patent US8802240B2",
  "about": "“Uses of formulations of thyroid hormone analogs and nanoparticulate forms thereof to increase chemosensitivity and radiosensitivity in tumor or cancer cells” (Nanopharmaceuticals LLC, priority 2011, dated 2014)",
  "key": {"GL261 cells": {"tested_on": "GL261 cells", "experiment": "GL261 sublethal damage repair (SLDR), split dose", "format": "cell-based, murine", "method": "SLDR was measured at 10% immediate survival level as determined from the acute single dose curve for both control and Tetrac-treated cells in both growth states (i.e. exponentially growing and plateau phase cells. Flasks were irradiated with one-half of the total dose and returned to the 37° C. incubator. At increasing periods of time, flasks were removed, and given the second half of the immediate 10% survival dose. Survival was measured at 0, 0.5, 1.0, 1.5, 2.0, 3.0, 4.0, 6.0, 8.0, and 10.0 hours after the initial dose.\nTo investigate the effects of Tetrac on SLDR and PLDR, cells were chosen that had been given a one-hour treatment with Tetrac at two different times, i.e., at 70 and 270 hours post-seeding)."}, "TTR (Transthyretin)": {"biological_target": "TTR (Transthyretin) (Homo sapiens, UniProt P02766)", "experiment": "TTR displacement assay", "format": "binding", "from_the_text": "Determination of the optimal or preferred density of the thyroid hormone or thyroid hormone analog bound to the nanoparticles is within the routine skill level in the art. For example, those skilled in the art will recognize that TTR (Transthyretin) can be used as the basis for a displacement assay in order to quantify the amount of Tetrac bound to nanoparticles. Specifically, such assays involve in vitro displacement of radiolabeled T4 from TTR by Tetrac or Tetrac nanoparticles (Tetrac NP). […] Amounts of nanoparticulate Tetrac in unknown suspensions (i.e., biologic fluids) are then calculated from the displacement of radiolabeled T4. […] The tubes are mixed and incubated for 16 hours at 4° C. The bound and free hormones are separated by adding dextran-coated charcoal (DCC) to each tube, which is then centrifuged at 12,000×g for 2 min. at 4° C. Bound [I^125] T4 in the supernatant is measured by scintillation counting."}, "GL261 tumor cells": {"tested_on": "GL261 tumor cells", "experiment": "GL261 44° C. hyperthermia", "format": "cell-based, murine", "conditions": "44° C. plus Tetrac is the equivalent of 45° C. without Tetrac", "method": "Additionally, Tetrac sensitizes GL261 cells in hyperthermic conditions. Graded heat treatment of GL261 tumor cells with 44° C. was given, without and with Tetrac. Tetrac increased cell killing as compared to control cells alone, by the equivalent of about 1° C. (i.e., 44° C. plus Tetrac is the equivalent of 45° C. without Tetrac). (See FIG. 63)."}, "Solubility": {"experiment": "Solubility", "format": "physicochemical", "conditions": "required a high volume of cosolvent (DMSO)"}, "[1]": {"tested_on": "medullary thyroid carcinoma cells implanted in CAM", "experiment": "CAM cancer implant model", "format": "in vivo, chick", "conditions": "1 μg/CAM; n = 8; P<0.01", "protocol": "The effect of Tetrac versus nanoparticulate Tetrac at 1.0 μg/CAM on tumor angiogenesis and tumor growth of 1×10^6 medullary thyroid carcinoma cells implanted in Matrigel in 7 day-old CAM's was determined 8 days after implantation. […] Data represent mean tumor weight (mg) and tumor hemoglobin (mg/dL)±SEM per treatment group, n=8 per group."}, "[2]": {"tested_on": "P-gp, GST and SOD in MCF7/R cells", "experiment": "Western blot of classical drug resistance genes", "format": "cell-based", "conditions": "24 h", "method": "FIG. 15A is a Western blofshowing the expression of P-gp, GST and SOD in wild type (W) drug sensitive and resistant (R) MCF7 cells. […] The cells were treated for 24 h with each drug alone or the combination of both, after that, expression of drug resistance molecules was determined by Western blot using specific antibodies. […] The cells were incubated for 24 hours with doxorubicin in the absence or the presence of Tetrac, after that they were washed and then solubilized. Radioactivity associated with the cell lysates was counted and compared between the two cell lines either treated or not with Tetrac. The data represent an average of 3 determinations±SE."}, "[3]": {"tested_on": "SKN-SH, SaOS2 and MCF7 cells, drug-sensitive and -resistant", "experiment": "MTT cell viability of drug-sensitive and drug-resistant cancer cells", "format": "cell-based", "conditions": "4 days", "method": "Drug-sensitive and -resistant SKN-SH (FIGS. 13C-D), SaOS2 (FIGS. 13A-B), and MCF7 (FIGS. 13E-F) cells were subjected to treatment with increasing concentrations of Tetrac or Doxirubicin over a period of 4 days. Cell viability was then measured by MTT assay. The data represent the average of 4 determinations±SE.\nDoxorubicin resistant SKN-SH/R, MCF7/R and SaOS2/R cells were subjected to treatment with Tetrac either alone or in combination with each of doxorubicin (Dox), etoposide (Etop), cisplatin (Cisp), or trichostatin A (TSA) at the indicated concentrations, After 4 days in cell viability was determined by the MTT assay and the data represented as average of 3 determinations±SE."}, "SKN-SH/R cells": {"tested_on": "SKN-SH/R cells", "experiment": "Senescence and apoptosis in drug resistant cells", "format": "cell-based", "conditions": "24 h", "method": "In FIG. 16A, SKN-SH/R cells were subjected to treatment doxorubicin (Dox) alone, Tetrac alone, or the combination of both for 24 h. Expression of p21/WAF1, cleaved caspase-3 (Cl-Casp-3) and beta action were measured by Western blot using specific antibodies. In FIG. 16B, the cells were seeded in 24 well plates and treated as mentioned above and expression of the senescence associated beta galactosidase (SA-β-Gal.) was assayed as described in the methods section. In FIG. 16C, the cells were seeded on cover slips and treated with the drugs as above for 24 h, after which they were fixed and stained with Hoechst and the percentage of positive cells graphed. The data represent average of 3 determinations±SE."}},
  "data": [
    {"smiles": "O=C(O)Cc1cc(I)c(Oc2cc(I)c(O)c(I)c2)c(I)c1", "note": "[Tetrac, tetraiodothyroacetic acid]", "values": [
      {"measurement": "repair of x-ray damage at 6 to 8 hours post-irradiation (in words)", "setting": "GL261 cells; 2 uM, FIG. 58, control repaired by a factor of 4 to 5", "value": "showed no repair of x-ray damage"},
      {"measurement": "reduction of SLDR by a factor of", "setting": "GL261 cells; exponential cells", "value": 1.8},
      {"measurement": "SLDR recovery ratio at 10 hours post-irradiation", "setting": "GL261 cells; exponential cells, two 2.50 Gy split doses, control approximately 4 to 5", "value": "approximately 2.2"},
      {"measurement": "SLDR recovery ratio at 2 hours after the first dose", "setting": "GL261 cells; exponential cells, control approximately 2.5", "value": 1.8},
      {"measurement": "survival at 3 hours after the initial dose, relative to survival at 0 hours (fixation of damage)", "setting": "GL261 cells; plateau phase cells with Tetrac", "value": "approximately 36%"},
      {"measurement": "decrease in cellular repair (SLDR) by a factor of", "setting": "GL261 cells; plateau phase cells, three hours post-irradiation", "value": "~3"},
      {"measurement": "affinity of TTR relative to that for T4", "setting": "TTR (Transthyretin)", "value": 100, "unit": "times"},
      {"measurement": "increase in cell killing, temperature equivalent", "setting": "GL261 tumor cells", "value": "about 1 °C"},
      {"measurement": "solubility in water (in words)", "setting": "Solubility", "value": "difficult to solubilize in water"},
      {"measurement": "tumor growth (in words)", "setting": "[1]", "value": "effective inhibition"},
      {"measurement": "tumor-mediated angiogenesis (in words)", "setting": "[1]", "value": "significant inhibition"},
      {"measurement": "expression of P-glycoprotein, SOD and GST-π (in words)", "setting": "[2]", "value": "none of these genes was significantly altered"},
      {"measurement": "anti-proliferative activity against drug-sensitive vs drug-resistant cells (in words)", "setting": "[3]; MTT", "value": "equivalent anti-proliferative activity"},
      {"measurement": "cellular responses to doxorubicin, etoposide, cisplatin and TSA when combined with Tetrac (in words)", "setting": "[3]; doxorubicin resistant SKN-SH/R, MCF7/R and SaOS2/R cells", "value": "significantly enhanced"},
      {"measurement": "doxorubicin-induced proliferation arrest (p21/WAF1), SA-β-Gal and cell death (in words)", "setting": "SKN-SH/R cells", "value": "dramatically enhanced"}
    ]}
  ]
}
